Source: the supplement of paper PMC10307832

Experiments:
Experiment in all cases: relative viability (nuclei count vs DMSO), 5 days (fraction); higher = more cells survive
HCC-15 = tested on: HCC-15
In short: (§1)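 Lung cancer cell lines, seeded in 1536-well plates, were treated the following day by pin tool with a single drug or with five library-drug doses (not always all listed) in √10 steps on top of a fixed anchor-drug dose. Cells were fixed and nuclei stained in one step after 5 days, and nuclei were counted. Relative viability is the nuclei count for treated wells divided by that for vehicle wells, reported as medians of duplicate plates.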

NCI-H1793 = tested on: NCI-H1793
In short: as §1

NCI-H838 = tested on: NCI-H838
In short: as §1

COR-L23 = tested on: COR-L23
In short: as §1

NCI-H1993 = tested on: NCI-H1993
In short: as §1

NCI-H1755 = tested on: NCI-H1755
In short: as §1

NCI-H2170 = tested on: NCI-H2170
In short: as §1

NCI-H2347 = tested on: NCI-H2347
In short: as §1

NCI-H1355 = tested on: NCI-H1355
In short: as §1

HARA = tested on: HARA
In short: as §1

NCI-H1792 = tested on: NCI-H1792
In short: as §1

HOP-62 = tested on: HOP-62
In short: as §1

SK-MES-1 = tested on: SK-MES-1
In short: as §1

NCI-H647 = tested on: NCI-H647
In short: as §1

NCI-H358 = tested on: NCI-H358
In short: as §1

NCI-H522 = tested on: NCI-H522
In short: as §1

NCI-H1734 = tested on: NCI-H1734
In short: as §1

NCI-H2009 = tested on: NCI-H2009
In short: as §1

NCI-H2228 = tested on: NCI-H2228
In short: as §1

UMC-11 = tested on: UMC-11
In short: as §1

COR-L 105 = tested on: COR-L 105
In short: as §1

NCI-H1395 = tested on: NCI-H1395
In short: as §1

`COc1nc(C)cnc1NS(=O)(=O)c1cccnc1-c1ccc(-c2nnco2)cc1` [Zibotentan] + COc1cccc2cc(-c3nc([C@H]4CC[C@H](C(=O)O)CC4)n4ncnc(N)c34)[nH]c12 [OSI-027] (partner 0.5 µM) showed a relative viability (HCC-15; first compound 0.08 µM) of 0.644, a relative viability (HCC-15; first compound 0.8 µM) of 0.759 and a relative viability (HCC-15; first compound 2.53 µM) of 0.781. The relative viability (NCI-H1793; first compound 0.08 µM) was 0.351, the relative viability (NCI-H1793; first compound 0.253 µM) was 0.284 and the relative viability (NCI-H1793; first compound 0.8 µM) was 0.224. It also gave a relative viability (NCI-H1793; first compound 2.53 µM) of 0.254, a relative viability (NCI-H838; first compound 0.08 µM) of 0.349 and a relative viability (NCI-H838; first compound 0.253 µM) of 0.366. For the same molecule, the relative viability (NCI-H838; first compound 0.8 µM) was 0.393, the relative viability (NCI-H838; first compound 2.53 µM) was 0.389 and the relative viability (COR-L23; first compound 0.08 µM) was 0.713. For the same molecule, the relative viability (COR-L23; first compound 0.253 µM) was 0.651, the relative viability (COR-L23; first compound 0.8 µM) was 0.789 and the relative viability (COR-L23; first compound 2.53 µM) was 0.798. It also gave a relative viability (NCI-H1993; first compound 0.08 µM) of 0.522, a relative viability (NCI-H1993; first compound 0.253 µM) of 0.494 and a relative viability (NCI-H1993; first compound 0.8 µM) of 0.468. For the same molecule, the relative viability (NCI-H1993; first compound 2.53 µM) was 0.525, the relative viability (NCI-H1755; first compound 0.08 µM) was 0.716 and the relative viability (NCI-H1755; first compound 0.253 µM) was 0.685. It also gave a relative viability (NCI-H1755; first compound 0.8 µM) of 0.715, a relative viability (NCI-H1755; first compound 2.53 µM) of 0.793 and a relative viability (NCI-H2170; first compound 0.08 µM) of 0.702. It also gave a relative viability (NCI-H2170; first compound 0.253 µM) of 0.761, a relative viability (NCI-H2170; first compound 0.8 µM) of 0.64 and a relative viability (NCI-H2170; first compound 2.53 µM) of 0.791. For the same molecule, the relative viability (NCI-H2347; first compound 0.253 µM) was 0.384, the relative viability (NCI-H2347; first compound 0.8 µM) was 0.49 and the relative viability (NCI-H2347; first compound 2.53 µM) was 0.259. For the same molecule, the relative viability (NCI-H1355; first compound 0.08 µM) was 0.375, the relative viability (NCI-H1355; first compound 0.253 µM) was 0.377 and the relative viability (NCI-H1355; first compound 0.8 µM) was 0.458. For the same molecule, the relative viability (NCI-H1355; first compound 2.53 µM) was 0.492, the relative viability (HARA; first compound 0.08 µM) was 0.42 and the relative viability (HARA; first compound 0.253 µM) was 0.462. The relative viability (HARA; first compound 0.8 µM) was 0.437, the relative viability (HARA; first compound 2.53 µM) was 0.715 and the relative viability (NCI-H1792; first compound 0.08 µM) was 0.803. The relative viability (NCI-H1792; first compound 0.253 µM) was 0.583, the relative viability (NCI-H1792; first compound 0.8 µM) was 0.563 and the relative viability (NCI-H1792; first compound 2.53 µM) was 0.751. The relative viability (HOP-62; first compound 0.08 µM) was 0.903, the relative viability (HOP-62; first compound 0.253 µM) was 0.871 and the relative viability (HOP-62; first compound 0.8 µM) was 0.878. For the same molecule, the relative viability (HOP-62; first compound 2.53 µM) was 0.931, the relative viability (SK-MES-1; first compound 0.08 µM) was 0.595 and the relative viability (SK-MES-1; first compound 0.253 µM) was 0.228. It also gave a relative viability (SK-MES-1; first compound 0.8 µM) of 0.555, a relative viability (SK-MES-1; first compound 2.53 µM) of 0.702 and a relative viability (NCI-H647; first compound 0.08 µM) of 0.665. For the same molecule, the relative viability (NCI-H647; first compound 0.253 µM) was 0.584, the relative viability (NCI-H647; first compound 0.8 µM) was 0.755 and the relative viability (NCI-H647; first compound 2.53 µM) was 0.725. The relative viability (NCI-H358; first compound 0.08 µM) was 0.833, the relative viability (NCI-H358; first compound 0.253 µM) was 0.531 and the relative viability (NCI-H358; first compound 0.8 µM) was 0.725. It also gave a relative viability (NCI-H358; first compound 2.53 µM) of 0.824, a relative viability (NCI-H522; first compound 0.08 µM) of 0.704 and a relative viability (NCI-H522; first compound 0.253 µM) of 0.717. For the same molecule, the relative viability (NCI-H522; first compound 0.8 µM) was 0.684, the relative viability (NCI-H522; first compound 2.53 µM) was 0.835 and the relative viability (NCI-H1734; first compound 0.08 µM) was 0.655. For the same molecule, the relative viability (NCI-H1734; first compound 0.253 µM) was 0.558, the relative viability (NCI-H1734; first compound 0.8 µM) was 0.604 and the relative viability (NCI-H1734; first compound 2.53 µM) was 0.668. The relative viability (NCI-H2009; first compound 0.08 µM) was 0.677, the relative viability (NCI-H2009; first compound 0.253 µM) was 0.632 and the relative viability (NCI-H2009; first compound 0.8 µM) was 0.711. It also gave a relative viability (NCI-H2009; first compound 2.53 µM) of 0.754, a relative viability (NCI-H2228; first compound 0.08 µM) of 0.623 and a relative viability (NCI-H2228; first compound 0.253 µM) of 0.571. For the same molecule, the relative viability (NCI-H2228; first compound 0.8 µM) was 0.484, the relative viability (NCI-H2228; first compound 2.53 µM) was 0.659 and the relative viability (UMC-11; first compound 0.08 µM) was 0.562. For the same molecule, the relative viability (UMC-11; first compound 0.253 µM) was 0.462, the relative viability (UMC-11; first compound 0.8 µM) was 0.467 and the relative viability (UMC-11; first compound 2.53 µM) was 0.514. It also gave a relative viability (COR-L 105; first compound 0.08 µM) of 0.822, a relative viability (COR-L 105; first compound 0.253 µM) of 0.618 and a relative viability (COR-L 105; first compound 0.8 µM) of 0.941. For the same molecule, the relative viability (COR-L 105; first compound 2.53 µM) was 0.909, the relative viability (NCI-H1395; first compound 0.08 µM) was 0.727 and the relative viability (NCI-H1395; first compound 0.253 µM) was 0.633. For the same molecule, the relative viability (NCI-H1395; first compound 0.8 µM) was 0.577 and the relative viability (NCI-H1395; first compound 2.53 µM) was 0.7.
